Results published in PubChem BioAssay (NCI).
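Five compound concentrations were applied to cells in 96-well plates for 48 hours; endpoints were derived by simple linear interpolation of the resulting dose-response curve. GI50 is the concentration that inhibits growth by half. TGI denotes the concentration required for complete inhibition of growth.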

Columns and labels:
Assay in all cases: NCI-60 cell line screen, 48 h
[1] = system: LOX IMVI melanoma
[2] = system: NCI/ADR-RES ovarian
[3] = system: CAKI-1 renal
[4] = system: T-47D breast
[5] = system: A549 NSCLC
[6] = system: SNB-75 CNS
[7] = system: UACC-257 melanoma
[8] = system: HOP-62 NSCLC
[9] = system: PC-3 prostate
[10] = system: HCC-2998 colon

SMILES | GI50 [1] [µM] | TGI [1] [µM] | GI50 [2] [µM] | TGI [2] [µM] | GI50 [3] [µM] | TGI [3] [µM] | GI50 [4] [µM] | TGI [4] [µM] | GI50 [5] [µM] | TGI [5] [µM] | GI50 [6] [µM] | TGI [6] [µM] | GI50 [7] [µM] | TGI [7] [µM] | GI50 [8] [µM] | TGI [8] [µM] | GI50 [9] [µM] | TGI [9] [µM] | GI50 [10] [µM] | TGI [10] [µM]
NCCc1ccc(S(=O)(=O)F)cc1 | 51.1 | > 100 | > 100 | > 100 | 30.3 | > 100 | > 100 | > 100 | > 100 | > 100 | > 100 | > 100 | > 100 | > 100 | 57.8 | > 100 | 42.8 | > 100 | 39.1 | > 100
CC(=O)OC1CCC2(C)C(CCC3C2CC(=O)C2(C)C3CC(N3CC3)C2C(C)=O)C1 (stereo not drawn) |  | 29.3 |  | 94.2 |  | 34.6 |  | 65.2 |  | > 100 |  | 42.6 |  | 32.5 |  | > 100 |  | 30 |  | 32
CC/C=C\C[C@H](F)C/C=C1/C(=O)C=C[C@@H]1C/C=C\CCCC(=O)OC | 0.854 | 1.75 | 1.71 | 35 | 1.87 | 6.82 | 1.42 | 5.57 | 1.99 | 10.5 | 5.64 | 11.7 | 2.75 | 10.1 | 1.45 | 3.45 | 1.74 | 5.7 | 4.1 | 10.6
CC(=O)/C(=C/c1ccccc1)C(=O)CC(C)C | 1.85 | 4.02 | 18.2 | 58.9 | 7.56 | 20.6 | 24 | 91.9 | 26.5 | 73.8 | 21.2 | 42.4 | 13.9 | 28.9 | 26.8 | 71.8 | 25.6 | 93.6 | 9.49 | 21.7
COC1C(O)CC(OC2CC(OC3CC(O[C@@H]4C(=O)c5c(cc6cc(OC7CC(OC8CC(O)C(O)C(C)O8)C(O)C(C)O7)c(C)c(O)c6c5O)CC4[C@H](OC)C(=O)O)OC(C)C3O)OC(C)C2O)OC1C (stereo partly drawn) | 0.983 | 5.07 | 10.3 | > 33.3 | 2.6 | > 33.3 | 1.33 | 32.1 | 1.66 | > 33.3 | 1.03 | 7.89 | 1.94 | 13.5 | 1.63 | > 33.3 | 2.4 | > 33.3 | 3.1 | 20
Cc1c2ccn(O)cc2c(C)c2c1nc1ccccc12 |  | 17.1 |  | > 100 |  | > 51.7 |  | 8.93 |  | > 100 |  | 21.3 |  | > 100 |  | 27.5 |  | 30.2 |  | 98.5
CCCCC(CCCCCC(CCCC)NCc1ccc2c(c1)OCO2)NCc1ccc2c(c1)OCO2 (stereo not drawn) | 0.22 | 0.581 | 0.711 | 1.93 | 0.669 | 1.76 | 0.315 | 0.933 | 0.426 | 1.02 | 1.46 | 2.78 | 0.199 | 0.378 | 0.836 | 2.13 | 1.01 | 2.53 | 0.178 | 0.322
Cc1ccc2oc(=O)cc(/C(=C3/C=CC=N3)c3ccc[nH]3)c2c1 | 0.343 | 1.41 | 0.314 | 3.77 | 0.53 | 10.6 | 0.445 | 7.66 | 0.59 | 10.9 | 0.335 | 4.46 | 0.711 | 4.06 | 0.533 | 5.53 | 0.274 | 1.54 | 1.15 | 3.12
N#Cc1c(NCc2ccccc2)nc(NCc2ccccc2)c(C#N)c1-c1ccc(O)cc1 | 16.7 | 41.4 | 47 | > 100 | 10.7 | 44.8 | 23.8 | > 100 | 34.1 | > 100 | 67.8 | > 100 | 43.2 | > 100 | 17.3 | 93 | 25.6 | > 100 | 39.5 | > 100
CC1=C2CC(C)(C)/C=C\C(=O)/C(C)=C\C3=C[C@H](C)C[C@]3(O2)C1=O |  | 1.64 |  | 7.77 |  | 2.42 |  | 1.65 |  | 15.5 |  | 12.2 |  | 4.41 |  | 15.9 |  | 7.09 |  | 10.2
COC(=O)c1ccc2c(c1)C(=O)c1c-2n(CCCCl)c(=O)c2cc([N+](=O)[O-])ccc12 | 40.9 | > 100 | > 100 | > 100 | 65.6 | > 100 | 92 | > 100 |  |  | 61.7 | > 100 | > 100 | > 100 | 43.3 | > 100 | > 100 | > 100 | > 100 | > 100
COc1cc2c3cc1Oc1c(OC)c(OC)cc4c1C(=NCC4)Cc1ccc(cc1)Oc1cc(ccc1O)C[C@H]3N(C)CC2 |  | 25.1 |  | 29.6 |  | 49.1 |  | 40.4 |  | > 100 |  | 40.2 |  | 29.6 |  | 44.7 |  | 42.5 |  | 26.1
CC1=CC(C)=NN=C(N)N1S(=O)(=O)c1cc(C)c(Cl)cc1SCc1ccccc1 | 58.4 | > 100 | 8.71 | > 100 | > 100 | > 100 | 4.21 | 79.1 | 31.3 | > 100 | 23.5 | > 100 | 37.6 | > 100 | 72.4 | > 100 | 6.15 | > 100 | 11.9 | > 100
